Test results: article PMC7413516, “Antidepressant-like activity and safety profile evaluation of 1H-imidazo[2,1-f]purine-2,4(3H,8H)-dione derivatives as 5-HT1A receptor partial agonists” (PLoS ONE, 2020)

Columns and labels:
Assay type in all cases: in vivo, Swiss albino mice
[1] = tested on: mice; assay: Forced swim test (FST) in mice
Excerpt: The investigated compounds AZ-853 (8-(4-(4-(2-fluorophenyl)piperazin-1-yl)butyl)-1,3-dimethyl-1H-imidazo[2,1-f]purine-2,4(3H,8H)-dione and AZ-861 (1,3-dimethyl-8-(4-(4-(3-(trifluoromethyl)phenyl)piperazin-1-yl)butyl)-1H-imidazo[2,1-f]purine-2,4(3H,8H)-dione) were synthesised in the Department of Medicinal Chemistry, Faculty of Pharmacy, Jagiellonian University, and their synthesis was described earlier. AZ-853 and AZ-861 were suspended in 1% aqueous solution of Tween 80, and WAY-100635 (Sigma, Germany) was dissolved in 0.9% saline. In acute experiments, the selected compounds AZ-853 (0.156–2.5 mg/kg) and AZ-861 (0.625–2.5 mg/kg) were injected i.p. once 60 min before tests, whereas WAY-100635 (0.3 mg/kg) was administered subcutaneously (s.c.) 45 min before the test. […] In chronic experiments, AZ-853 and AZ-861 were administered i.p. once a day (between 9:00 AM and 10:00 AM) for 16 consecutive days at the minimum active doses selected from FST experiment, i.e. 0.625 and 1.25 mg/kg, respectively. All compounds were administered to mice at a volume of 10 ml/kg and to rats at a volume of 2 ml/kg. The control groups received 1% aqueous solution of Tween 80.
The experiment was carried out according to the method of Porsolt et al.. Swiss albino mice were individually placed in a glass cylinder (25 cm high; 10 cm in diameter) containing 10 cm of water maintained at 23–25°C, and were left there for 6 min. The total duration of immobility was recorded during the last 4 min of a 6-min. A mouse was regarded as immobile when it remained floating on the water, making only small movements to keep its head above it.
(§1) The Swiss albino mice were used in the experiment. AZ-853 and AZ-861 were injected once daily for 16 consecutive days. On the 1st and 15th day the administration of the compounds, 18-h spontaneous animal activity was registered (see below). FST, as described earlier, was performed on the 14th day just before the next treatment. To ensure that the effects observed in FST are not the result of increased motility of animals, on the 13th day, just before the next administration, the locomotor activity was measured as described earlier, from 2 to 6 min after test start, i.e. in the period identical to the duration of FST. Blood and organ collection was performed on the 17th day at 24 h after the last dose and fasting.

[2] = tested on: mice; assay: Spontaneous activity monitoring (RFID TraffiCage, 18 h); conditions: for Mean counts, spontaneous activity: 1.25 mg/kg
Description: as §1
The spontaneous activity of the mice was measured on the 1st and 15th day of the treatment with a special, innovative radiofrequency identification system (RFID-system)—TraffiCage (TSE-Systems, Germany). The test was conducted according to the method described in the literature. The animals had the transmitter (RFID) subcutaneously implanted, which tracked the time they spent in different areas of the cage. The data obtained were then grouped in a special computer program.

[3] = Plasma ALAT and γ-GTP activity after repeated administration; conditions: mice, AZ-853 0.625, AZ-861 1.25 mg/kg b.w./day
Description: as §1
Blood samples were collected from the Swiss albino mice 24 h after the last administration of the tested compounds or vehicle. To determine glucose, cholesterol and triglyceride levels in the plasma, standard enzymatic spectrophotometric tests (Biomaxima S.A. Lublin, Poland) were used. In the presence of appropriate enzyme, the substrate was converted to a colored compound. Absorbance was measured at a wavelength of 500 nm. To determine alanine aminotransferase (ALAT) or γ-glutamyl transpeptidase (γ-GTP) activities in the plasma, the standard enzymatic spectrophotometric test (Biomaxima S.A.) was used. Absorbance was measured at 340 nm (ALAT) or 405 nm (γ-GTP).

[4] = 18-h monitoring, AZ-853 0.625, AZ-861 1.25 mg/kg b.w./day

- spontaneous activity after the 1st administration vs. control [2, 4]: No effect on locomotor activity
- Mean counts, spontaneous activity ([2]; after 1st administration, 1 h after administration): 223.1 counts
- Mean counts, spontaneous activity ([2]; after 1st administration, 2 h after administration): 212.3 counts
- Mean counts, spontaneous activity ([2]; after 1st administration, 3 h after administration): 190.0 counts
- Mean counts, spontaneous activity ([2]; after 1st administration, 4 h after administration): 112.6 counts
- Mean counts, spontaneous activity ([2]; after 1st administration, 5 h after administration): 125.9 counts
- Mean counts, spontaneous activity ([2]; after 1st administration, 6 h after administration): 188.8 counts
- Mean counts, spontaneous activity ([2]; after 1st administration, 7 h after administration): 229.5 counts
- Mean counts, spontaneous activity ([2]; after 1st administration, 8 h after administration): 268.3 counts
- Mean counts, spontaneous activity ([2]; after 1st administration, 9 h after administration): 274.6 counts
- Mean counts, spontaneous activity ([2]; after 1st administration, 10 h after administration): 298.0 counts
- Mean counts, spontaneous activity ([2]; after 1st administration, 11 h after administration): 311.6 counts
- Mean counts, spontaneous activity ([2]; after 1st administration, 12 h after administration): 274.9 counts
- Mean counts, spontaneous activity ([2]; after 1st administration, 13 h after administration): 290.8 counts
- Mean counts, spontaneous activity ([2]; after 1st administration, 14 h after administration): 267.1 counts
- Mean counts, spontaneous activity ([2]; after 1st administration, 15 h after administration): 232.3 counts
- Mean counts, spontaneous activity ([2]; after 1st administration, 16 h after administration): 255.3 counts
- Mean counts, spontaneous activity ([2]; after 1st administration, 17 h after administration): 318.8 counts
- Mean counts, spontaneous activity ([2]; after 1st administration, 18 h after administration): 275.9 counts
- Mean counts, spontaneous activity ([2]; after 15th administration, 1 h after administration): 228.5 counts
- Mean counts, spontaneous activity ([2]; after 15th administration, 2 h after administration): 121.0 counts
- Mean counts, spontaneous activity ([2]; after 15th administration, 3 h after administration): 91.6 counts
- Mean counts, spontaneous activity ([2]; after 15th administration, 4 h after administration): 149.1 counts
- Mean counts, spontaneous activity ([2]; after 15th administration, 5 h after administration): 154.4 counts
- Mean counts, spontaneous activity ([2]; after 15th administration, 6 h after administration): 159.0 counts
- Mean counts, spontaneous activity ([2]; after 15th administration, 7 h after administration): 185.0 counts
- Mean counts, spontaneous activity ([2]; after 15th administration, 8 h after administration): 140.4 counts
- Mean counts, spontaneous activity ([2]; after 15th administration, 9 h after administration): 144.0 counts
- Mean counts, spontaneous activity ([2]; after 15th administration, 10 h after administration): 195.7 counts
- Mean counts, spontaneous activity ([2]; after 15th administration, 11 h after administration): 177.3 counts
- Mean counts, spontaneous activity ([2]; after 15th administration, 12 h after administration): 236.1 counts
- Mean counts, spontaneous activity ([2]; after 15th administration, 13 h after administration): 169.1 counts
- Mean counts, spontaneous activity ([2]; after 15th administration, 14 h after administration): 242.3 counts
- Mean counts, spontaneous activity ([2]; after 15th administration, 15 h after administration): 172.6 counts
- Mean counts, spontaneous activity ([2]; after 15th administration, 16 h after administration): 218.9 counts
- Mean counts, spontaneous activity ([2]; after 15th administration, 17 h after administration): 210.1 counts
- Mean counts, spontaneous activity ([2]; after 15th administration, 18 h after administration): 244.6 counts
- increase of plasma γ-GTP activity [3]: did not change activity
Structure (SMILES): Cn1c(=O)c2c(nc3n(CCCCN4CCN(c5cccc(C(F)(F)F)c5)CC4)ccn23)n(C)c1=O [AZ-861, 1,3-dimethyl-8-(4-(4-(3-(trifluoromethyl)phenyl)piperazin-1-yl)butyl)-1H-imidazo[2,1-f]purine-2,4(3H,8H)-dione]
- reduction of immobility time in FST ([1]; acute, 1.25 mg/kg i.p., 60 min before test): approximately 33%
- effect of WAY-100635 on the antidepressant-like action of the compound in FST ([1]; compound 1.25 mg/kg i.p. + WAY-100635 0.3 mg/kg s.c.): attenuation of the anti-immobility effect
- effect on immobility time in FST after repeated administration ([1]; i.p. once daily for 13 consecutive days, AZ-853 0.625 mg/kg, AZ-861 1.25 mg/kg): decreased the immobility time
- spontaneous activity after the 15th administration vs. control [2, 4]: significant decrease in spontaneous activity
- plasma ALAT activity vs. control [3]: did not lead to significant changes in ALAT activity
